The values that follow are results of earlier work, collected in US6720472B2, “HMGI proteins in cancer and obesity” (University of Medicine and Dentistry of New Jersey, priority 1996, dated 2004).

The structures appear in SMILES notation. Entries after “also recorded” stand apart in the source; their conditions may differ. Like-named read-outs stand apart in the source and are kept apart here.

For one data set, the system named is HMG-I proteins. To be noted: in vitro, A T-rich DNA.
The subject of data set [1] is B-DNA dodecamer of sequence C-G-C-G-A-A-T-T-BrC-G-C-G. To be noted: X-ray analysis of the complex.
Data set [2] deals with ascites tumors [Ehrlich and sarcoma 180 (S180)].
In data set [3] the test system is solid tumors (Ehrlich carcinoma, S180, Walker carcinoma, and Oberling-Guerin-Guerin myeloma).

Take `Cn1cc(NC(=O)c2cc(NC(=O)CN=C(N)N)cn2C)cc1C(=O)NCCC(=N)N` [netropsin]: in the data set with HMG-I proteins, the “competition with the BD peptide and the HMG-I proteins for DNA binding” value (from here on “competition”) was “compete with the HMGI proteins for binding to AT-rich DNA; also recorded: effectively compete”. The “binding site on DNA” value in data set [1] was “binds within the minor groove”.

As to `Cn1cc(NC(=O)c2cc(NC(=O)c3cc(NC=O)cn3C)cn2C)cc1C(=O)NCCC(=N)N` [distamycin A], the “competition” value in the data set with HMG-I proteins is given as “compete with the HMGI proteins for binding to AT-rich DNA”. For the same compound, the “competition” value in the data set with HMG-I proteins (listed as distamycin) is listed as “effectively compete”. For the same compound, in data set [2] (Ehrlich and sarcoma 180 (S180) ascites tumors), the “inhibition on ascites tumors” value is listed as “strong inhibition”. In addition, in data set [2] (Ehrlich ascites tumor), the “mitotic damages of tumor cells” value is “induces mitotic damages” and the “mitotic index of the Ehrlich ascites tumor” value is listed as “decrease the mitotic index”. Moreover, the “growth of solid tumors” value in data set [3] is reported as “delays the growth”.

Regarding `CN1CCN(c2ccc3[nH]c(-c4ccc5[nH]c(-c6ccc(O)cc6)nc5c4)nc3c2)CC1` [Hoechst 33258, Hoechst 33258 (bisbenzimide)], the “competition” value with HMG-I proteins is reported as “compete with the HMGI proteins for binding to AT-rich DNA; also recorded: effectively compete”.
